Results taken from US5382568A, “Decapeptide having dopamine stimulating activity” (Arizona Board of Regents, priority 1993, dated 1995).
Residues, ends and D or L forms follow the SMILES beside them. No end group written: not given here.

Tests used:
[1] = system: serum LH; experiment: Acute effect of intravenous injection on serum LH (radioimmunoassay); assay type: in vivo; details: rats, intravenous 5.0 micrograms, as LH-RP-2 standard
Protocol: (§1) For intravenous peptide injections anesthetized rats were fitted surgically with indwelling intra-arterial cannulae 24 hours before the tests. The next day samples of arterial blood were withdrawn from the unanesthetized rats immediately before and after the injection of graded doses of the pineal antigonadotropin. Prolactin and LH were measured in the blood samples by standard double antibody radioimmunoassay with kits provided by the National Hormone and Pituitary Program. The acute effects of 5.0 micrograms of the antigonadotropin are illustrated in the table below:
(§2) Values for LH are expressed as the National Institutes of Health reference standard LH-RP-2. Means±S.E.M. are indicated (n=5)

[2] = system: serum PRL; experiment: Acute effect of intravenous injection on serum PRL (radioimmunoassay); assay type: in vivo; details: rats, intravenous 5.0 micrograms
Protocol: as §1, §2

[3] = system: rat hypothalamic median eminence strips; experiment: Dopamine release from hypothalamic median eminence strips in vitro; details: for Release of dopamine from rat hypothalamus in vitro (in words): median eminence strips
Protocol: Rat hypothalamic median eminence strips were rapidly dissected and placed in culture plates containing 100 μl of a Kreb's solution saturated with O2 in accord with the procedure described in Racke, K. and E. Muscholl, J. of Neurochemistry 46:745, 1986. The median eminence strips were maintained at 37° C. under 95% O2 /5%CO2 in a Dubnoff shaking incubator. The media were replaced after a ten minute pre-incubation period. 50 μl samples were taken at 30, 60 and 90 min of incubation for catecholamine determination, with replacement of the removed media. 20 μl of 0.1M perchloric acid were added to each sample before storage at -20°. Media contents of dopamine, norepinephrine and various indoleamine and catecholamine metabolites were determined by HPLC coupled with electrochemical detection in accord with the procedure described in Gregory, V. M., B. Larsen and B. Benson, J. of Chromatography 345:140-144,1985.

[4] = system: anterior pituitary dopamine content; experiment: Acute effect of a single subcutaneous injection on anterior pituitary dopamine content; assay type: in vivo; details: mice; for Pituitary dopamine content: single subcutaneous injection of 25 nanograms
[5] = system: male and female rats and mice; experiment: Antigonadotropic effects after chronic daily subcutaneous injection; assay type: in vivo; details: two to four weeks
Protocol: The neurotropic pineal antigonadotropin of the present invention was assayed in vivo, as is described below. Natural and synthetic analogs were injected into male and female rats and mice in graded doses. Antigonadotropic effects were assessed after a period of chronic daily subcutaneous injection in a variety of solvents/carriers, e.g. physiological saline or corn oil. […] Additionally, blood levels of the gonadal steroids (testosterone in males and estrogens in females) were reduced.

[6] = system: pituitary secretion of LH and PRL; experiment: Intravenous or intracerebroventricular injections: pituitary secretion of LH and PRL; assay type: in vivo

Compound	Serum LH ([1]; postinjection time 0') [ng/mL]	Serum LH ([1]; postinjection time 15') [ng/mL]	Serum LH ([1]; postinjection time 30') [ng/mL]	Serum LH ([1]; postinjection time 45') [ng/mL]	Serum LH ([1]; postinjection time 60') [ng/mL]	Serum PRL ([2]; postinjection time 0')	Serum PRL ([2]; postinjection time 15')	Serum PRL ([2]; postinjection time 30')	Serum PRL ([2]; postinjection time 45')	Serum PRL ([2]; postinjection time 60')	other results
C[C@@H](O)[C@H](NC(=O)[C@H](CCCCN)NC(=O)[C@@H](NC(=O)[C@@H](NC(=O)[C@@H]1CCCN1C(=O)[C@H](Cc1ccccc1)NC(=O)[C@@H](N)CO)[C@@H](C)O)[C@@H](C)O)C(=O)N[C@@H](Cc1ccc(O)cc1)C(=O)N[C@@H](Cc1ccccc1)C(=O)N1CCC[C@H]1C(=O)O [PAG (2), NH2 -Ser-Phe-Pro-Thr-Thr-Lys-Thr-Tyr-Phe-Pro-COOH] (H-SFPTTKTYFP-OH)	0.26	0.20	0.15	0.12	0.11	100 ± 8 % of Initial Control Value	44 ± 6 % of Initial Control Value	30 ± 3 % of Initial Control Value	25 ± 3 % of Initial Control Value	32 ± 6 % of Initial Control Value	Release of dopamine from rat hypothalamus in vitro (in words) ([3]; listed as synthetic decapeptide): effectively stimulates the release of dopamine into the incubation medium
C[C@@H](O)[C@H](NC(=O)[C@H](CCCCN)NC(=O)[C@@H](NC(=O)[C@@H](NC(=O)[C@@H]1CCCN1C(=O)[C@H](Cc1ccccc1)NC(=O)[C@@H](N)CO)[C@@H](C)O)[C@@H](C)O)C(=O)N[C@@H](Cc1ccc(O)cc1)C(=O)N[C@@H](Cc1ccccc1)C(=O)N1CCC[C@H]1C(=O)O [PAG (1), NH2 -Ser-Phe-Pro-Thr-Thr-Lys-Thr-Tyr-Phe-Pro-COOH] (H-SFPTTKTYFP-OH)	0.25	0.21	0.15	0.10	0.14	100 ± 11 % of Initial Control Value	55 ± 6 % of Initial Control Value	38 ± 6 % of Initial Control Value	31 ± 4 % of Initial Control Value	22 ± 5 % of Initial Control Value	–
SFPTTKTYFP [PAG, NH2 -Ser-Phe-Pro-Thr-Thr-Lys-Thr-Tyr-Phe-Pro-COOH]	–	–	–	–	–	–	–	–	–	–	Anterior pituitary dopamine content (in words) ([4]; single injection of 25 nanograms): significant increase in anterior pituitary dopamine content; Pituitary dopamine content ([4]; postinjection time 0'): 0.539 ± 0.046 nanograms per mg of pituitary; Pituitary dopamine content ([4]; postinjection time 15'): 0.795 ± 0.064 nanograms per mg of pituitary; Pituitary dopamine content ([4]; postinjection time 30'): 1.801 ± 0.126 nanograms per mg of pituitary; Dopamine released into the incubation medium (accumulative) ([3]; 10^-5 M, incubation time 30'): 35.2 ± 7.6 pg/µL; Dopamine released into the incubation medium (accumulative) ([3]; 10^-5 M, incubation time 60'): 100.2 ± 13 pg/µL; Dopamine released into the incubation medium (accumulative) ([3]; 10^-5 M, incubation time 90'): 182.9 ± 13.7 pg/µL; Dopamine released into the incubation medium (accumulative) ([3]; 10^-7 M, incubation time 30'): 27.2 ± 2.1 pg/µL; Dopamine released into the incubation medium (accumulative) ([3]; 10^-7 M, incubation time 60'): 61.5 ± 5.3 pg/µL; Dopamine released into the incubation medium (accumulative) ([3]; 10^-7 M, incubation time 90'): 109.3 ± 10.8 pg/µL; Release of dopamine from rat hypothalamus in vitro (in words) ([3]; listed as pineal antigonadotropic decapeptide): stimulates the release of dopamine; Pituitary and blood levels of gonadotropins and prolactin [5]: reductions of pituitary and blood levels of gonadotropins and prolactin; Pituitary, gonadal and accessory reproductive organ weights [5]: significant reductions in pituitary, gonadal and accessory reproductive organ weights; Release of pituitary LH (pulsatile) ([6]; intracerebroventricular infusions): inhibited release of pituitary LH, reducing both the amplitude and frequency of pulsatile LH release into the blood; Pituitary secretion of LH and PRL ([6]; intravenous or intracerebroventricular injections): demonstrable inhibitory effects on pituitary secretion of LH and PRL
